Results taken from article PMC10819771 (Pharmaceuticals, 2023).
Read-outs that look alike come from different tables or passages of the source.

Columns and labels:
[1] = tested on: MDA-MB-231; test: MTT antiproliferative assay, MDA-MB-231; format: cell-based, human; conditions: MTT, 72 h, breast cancer cells, read-out: IC50 Values (μM) ± SEM MDA-MB-231
Method: (§1) The growth-inhibitory effects of the compounds were determined by MTT (3-(4,5-dimethylthiazol-2-yl)-2,5-diphenyltetrazolium bromide) assay on selected cell lines, including HeLa and SiHa (cervical cancers), MDA-MB-231 and MCF-7 (breast cancers), and A2780 ovarian cancer cells. All cell lines were purchased from the European Collection of Cell Cultures (Salisbury, UK) except SiHa, which was obtained from the American Tissue Culture Collection (Manassas, VA, USA). The cells were kept in minimum essential medium supplemented with 10% fetal bovine serum, 1% non-essential amino acids, and 1% penicillin-streptomycin-amphotericin-B at 37 °C in a humidified atmosphere containing 5% CO2. Media and supplements were obtained from Lonza Group Ltd., (Basel, Switzerland). Cancer cells were seeded onto 96-well plates (5000 cells/well), after an overnight incubation the test compounds were added in six concentrations (0.1, 0.3, 1.0, 3.0, 10.0, 30.0 µM) and incubated for 72 h under cell-culture condition. After the incubation, 20 μL of 5 mg/mL MTT solution was added to each well and incubated for a further 4 h. The medium was removed, and the precipitated formazan crystals were dissolved in DMSO for 30 min under shaking at 37 °C. The absorbance was measured at 545 nm with a microplate reader. Untreated cells were included as controls. Calculations were performed by means of the GraphPad Prism 5.01 software (GraphPad Software Inc., San Diego, CA, USA). At least two independent determinations were performed with 5 parallel wells for each condition.

[2] = tested on: A2780; test: MTT antiproliferative assay, A2780; format: cell-based, human; conditions: MTT, 72 h, ovarian cancer cells, read-out: IC50 Values (μM) ± SEM A2780
Method: as §1

[3] = tested on: MCF-7; test: MTT antiproliferative assay, MCF-7; format: cell-based, human; conditions: MTT, 72 h, breast cancer cells, read-out: IC50 Values (μM) ± SEM MCF-7
Method: as §1

[4] = tested on: Fc-MYCT; test: FRET-melting, Fc-MYCT; format: binding; conditions: ligand 2 μM, DNA 0.2 μM, K+ conditions, pH 7.2
Method: (§2) FRET-melting experiments were conducted on a Stratagene MX3005P (Thermo Fisher Scientific, Illkirch-Graffenstaden, France) real-time PCR equipment in 96-well plates on the DNA sequences reported in Table 4. Experiments were performed in 10 mM lithium cacodylate buffer (pH 7.2) and either 10 mM KCl and 90 mM LiCl (FK-RAST, FBCL-2T, F21T, and FdxT) or 1 mM KCl and 99 mM LiCl (Fc-MYCT) concentrations, depending on the Tm of the G4s alone. The DNA concentration was 0.2 µM. […] Data are presented as an average of three independent measurements, each conducted in duplicate conditions (λexc = 492 nm, λem = 516 nm, T interval = 25–95 °C, ramp: 25 °C for 5 min, then 1 °C/min, measurements every 1 °C, 8× magnification of the fluorescence signal).

[5] = tested on: FdxT; test: FRET-melting, duplex control FdxT; format: binding; conditions: ligand 2 μM, DNA 0.2 μM, 10 mM KCl, 90 mM LiCl, pH 7.2, hairpin duplex
Method: as §2

[6] = tested on: FK-RAST; test: FRET-melting, FK-RAST; format: binding; conditions: ligand 2 μM, DNA 0.2 μM, 10 mM KCl, 90 mM LiCl, pH 7.2
Method: as §2

[7] = tested on: HeLa; test: MTT antiproliferative assay, HeLa; format: cell-based, human; conditions: MTT, 72 h, cervical cancer cells, read-out: IC50 Values (μM) ± SEM HeLa
Method: as §1

[8] = tested on: K562; test: MTS cell proliferation assay, K562; format: cell-based, human; conditions: MTS, 3-day incubation, leukemia cells, read-out: IC50 Values (μM) ± SEM K562
Method: The human leukemic cell line K562 was grown in RPMI 1640 medium (Life Technology-Invitrogen by Thermo Fisher Scientific, Saint-Aubin, France) supplemented with 10% fetal calf serum (FCS), antibiotics (100 U/mL penicillin, 100 µg/mL streptomycin), and L-glutamine, (Eurobio, Les Ulis, France) at 37 °C, 5% CO2 in air. The MTS cell proliferation assay (Promega, Charbonnières-les-Bains, France) is a colorimetric assay system, which measures the transformation of a tetrazolium component (MTS) into formazan produced by the mitochondria of viable cells. Cells were washed twice in PBS (Phosphate Buffer Saline) and plated in quadruplicate into microtiter-plate wells in 100 μL culture media with or without our various compounds at increasing concentrations (0, 1, 5, 10, 20, and 50 μM) for 1, 2, and 3 days. After 3 h of incubation at 37 °C with 20 μL MTS/well, the plates were read using an ELISA microplate reader (Thermo, Electrocorporation, Waltham, MA, USA) at 490 nm. The amount of color produced was directly proportional to the number of viable cells. The results are expressed as the concentrations inhibiting cell growth by 50% after a 3-day incubation period. The 50% cytotoxic concentrations (CC50) were determined by linear regression analysis, expressed in μM ± SD (Microsoft Excel).

[9] = tested on: FBCL-2T; test: FRET-melting, FBCL-2T; format: binding; conditions: ligand 2 μM, DNA 0.2 μM, 10 mM KCl, 90 mM LiCl, pH 7.2
Method: as §2

[10] = tested on: SiHa; test: MTT antiproliferative assay, SiHa; format: cell-based, human; conditions: MTT, 72 h, cervical cancer cells, read-out: IC50 Values (μM) ± SEM SiHa
Method: as §1

[11] = tested on: human telomeric sequence F21T; test: FRET-melting, F21T; format: binding; conditions: ligand 2 μM, DNA 0.2 μM, 10 mM KCl, 90 mM LiCl, pH 7.2
Method: as §2

**Q.** How did the IC50 [1] turn out when “2,4-bis{4-[(4-(3-methylpiperazin-1-yl)propyl)aminomethyl]phenyl}-6-phenylquinazoline [Compound 12d]” was run?
**A.** 1.44 ± 0.17 µM

**Q.** What about the IC50 [2] of the same molecule?
**A.** 1.74 ± 0.11 µM

**Q.** What about the IC50 [3] of the same molecule?
**A.** 1.01 ± 0.3 µM

**Q.** What about the “ΔT1/2 (°C) Fc-MYCT” value [4] of the same molecule?
**A.** 8.4 ± 0.9 °C

**Q.** What about the “ΔT1/2 (°C) FdxT” value [5] of the same molecule?
**A.** 0.5 ± 0.3 °C

**Q.** And the “ΔT1/2 (°C) FK-RAST” value [6]?
**A.** 15.5 ± 0.5 °C

**Q.** What about the IC50 [7] of the same molecule?
**A.** 1.32 ± 0.02 µM

**Q.** And the IC50 [8]?
**A.** 17 ± 0.4 µM

**Q.** What about the “ΔT1/2 (°C) FBCL-2T” value [9] of the same molecule?
**A.** 9.7 ± 0.06 °C

**Q.** What about the IC50 [10] of the same molecule?
**A.** 1.28 ± 0.27 µM

**Q.** And the “ΔT1/2 (°C) F21T” value [11]?
**A.** 15.8 ± 1.2 °C

**Q.** Which results are given for `CN(C)CCCCNCc1ccc(-c2nc(-c3ccc(CNCCCCN(C)C)cc3)c3cc(-c4ccccc4)ccc3n2)cc1` [Compound 12c, 2,4-bis{4-[(4-dimethylaminobutyl)aminomethyl]phenyl}-6-phenylquinazoline]?
**A.** IC50 ([1]; Homo sapiens, MDA-MB-231, 72 h): 1.07 ± 0.42 µM; IC50 ([2]; Homo sapiens, A2780): 2.04 ± 0.54 µM; IC50 ([3]; Homo sapiens, MCF7, 72 h): 1.44 ± 0.03 µM; ΔT1/2 (°C) Fc-MYCT [4]: 17.7 ± 0.8 °C; ΔT1/2 (°C) FdxT [5]: 3.8 ± 0.8 °C; ΔT1/2 (°C) FK-RAST [6]: 24.5 ± 0.7 °C; IC50 ([7]; Homo sapiens, HeLa): 2.21 ± 0.86 µM; IC50 ([8]; Homo sapiens, K562, 72 h): 7 ± 0.2 µM; ΔT1/2 (°C) FBCL-2T [9]: 16.4 ± 0.4 °C; IC50 ([10]; Homo sapiens, SiHa): 0.76 ± 0.01 µM; ΔT1/2 (°C) F21T [11]: 28.0 ± 0.4 °C

**Q.** Which IC50 ([1]; Homo sapiens, MDA-MB-231, 72 h) does the source give for `CN(C)CCCCCNCc1ccc(-c2nc(-c3ccc(CNCCCCCN(C)C)cc3)c3ccc(-c4ccccc4)cc3n2)cc1` [Compound 12h, 2,4-bis{4-[(5-dimethylaminopentyl)aminomethyl]phenyl}-7-phenylquinazoline] here?
**A.** 1.1 ± 0.38 µM

**Q.** What about the IC50 ([2]; Homo sapiens, A2780) of the same molecule?
**A.** 1.43 ± 0.07 µM

**Q.** And the IC50 ([3]; Homo sapiens, MCF7, 72 h)?
**A.** 1.19 ± 0.27 µM

**Q.** And the “ΔT1/2 (°C) Fc-MYCT” value [4]?
**A.** 18.7 ± 0.2 °C

**Q.** And the “ΔT1/2 (°C) FdxT” value [5]?
**A.** 2.7 ± 1.0 °C

**Q.** And the “ΔT1/2 (°C) FK-RAST” value [6]?
**A.** 28.6 ± 2.1 °C

**Q.** And the IC50 ([7]; Homo sapiens, HeLa)?
**A.** 2.31 ± 0.76 µM

**Q.** And the IC50 ([8]; Homo sapiens, K562, 72 h)?
**A.** 13 ± 0.2 µM

**Q.** And the “ΔT1/2 (°C) FBCL-2T” value [9]?
**A.** 18.2 ± 1.7 °C

**Q.** What about the IC50 ([10]; Homo sapiens, SiHa) of the same molecule?
**A.** 0.75 ± 0.01 µM

**Q.** And the “ΔT1/2 (°C) F21T” value [11]?
**A.** 28.1 ± 2.3 °C

**Q.** How did the IC50 ([1]; Homo sapiens, MDA-MB-231, 72 h) turn out when `CN(C)CCCNCc1ccc(-c2nc(-c3ccc(CNCCCN(C)C)cc3)c3cccc(-c4ccccc4)c3n2)cc1` [Compound 12k, 2,4-bis{4-[(3-dimethylaminopropyl)aminomethyl]phenyl}-8-phenylquinazoline] was run?
**A.** 1.36 ± 0.06 µM

**Q.** What about the IC50 ([2]; Homo sapiens, A2780) of the same molecule?
**A.** 1.34 ± 0.14 µM

**Q.** And the IC50 ([3]; Homo sapiens, MCF7, 72 h)?
**A.** 1.12 to 1.24 µM

**Q.** What about the IC50 [3] of the same molecule?
**A.** 1.24 ± 0.14 µM

**Q.** And the “ΔT1/2 (°C) Fc-MYCT” value [4]?
**A.** 9.9 ± 1.4 °C

**Q.** What about the “ΔT1/2 (°C) FdxT” value [5] of the same molecule?
**A.** 0.8 ± 0.1 °C

**Q.** What about the “ΔT1/2 (°C) FK-RAST” value [6] of the same molecule?
**A.** 13.0 ± 0.4 °C

**Q.** And the IC50 ([7]; Homo sapiens, HeLa)?
**A.** 1.19 ± 0.24 µM

**Q.** What about the IC50 ([8]; Homo sapiens, K562, 72 h) of the same molecule?
**A.** 7 ± 0.1 µM

**Q.** What about the “ΔT1/2 (°C) FBCL-2T” value [9] of the same molecule?
**A.** 9.5 ± 0.2 °C

**Q.** And the IC50 ([10]; Homo sapiens, SiHa)?
**A.** 1.01 ± 0.27 µM
